The target in this experiment is T1, Human TRPC6 (Homo sapiens, UniProt Q9Y210).
T1 construct: expressed in transfected cells
T1 sequence (Q9Y210 1-931): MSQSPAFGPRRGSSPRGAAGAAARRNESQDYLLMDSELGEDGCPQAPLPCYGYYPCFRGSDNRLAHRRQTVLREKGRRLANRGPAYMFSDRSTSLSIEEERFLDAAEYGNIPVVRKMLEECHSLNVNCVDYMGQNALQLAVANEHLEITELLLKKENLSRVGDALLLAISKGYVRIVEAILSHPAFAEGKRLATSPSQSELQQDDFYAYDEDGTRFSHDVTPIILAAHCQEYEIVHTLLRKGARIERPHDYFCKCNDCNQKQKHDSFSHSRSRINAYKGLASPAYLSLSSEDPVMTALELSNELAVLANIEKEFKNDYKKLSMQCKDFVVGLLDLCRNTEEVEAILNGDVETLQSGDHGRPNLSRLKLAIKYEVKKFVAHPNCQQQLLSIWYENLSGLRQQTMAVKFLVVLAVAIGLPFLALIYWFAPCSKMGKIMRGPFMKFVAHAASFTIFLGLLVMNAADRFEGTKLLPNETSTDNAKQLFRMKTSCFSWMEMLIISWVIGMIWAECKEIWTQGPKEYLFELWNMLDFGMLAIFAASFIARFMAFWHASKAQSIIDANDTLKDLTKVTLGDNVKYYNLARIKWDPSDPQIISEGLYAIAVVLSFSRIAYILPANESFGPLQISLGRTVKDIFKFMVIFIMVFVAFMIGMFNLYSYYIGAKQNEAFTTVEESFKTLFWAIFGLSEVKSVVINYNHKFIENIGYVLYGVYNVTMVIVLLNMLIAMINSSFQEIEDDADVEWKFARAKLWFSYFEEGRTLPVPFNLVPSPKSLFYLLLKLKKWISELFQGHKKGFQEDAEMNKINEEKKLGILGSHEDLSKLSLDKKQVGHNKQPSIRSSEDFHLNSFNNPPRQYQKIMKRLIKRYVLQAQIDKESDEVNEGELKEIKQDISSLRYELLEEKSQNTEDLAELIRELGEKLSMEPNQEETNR
Nature of the experiment: Evaluation of TRPC6 channel inhibitory activity (1), FLIPR Calcium 5 Assay Kit, OAG stimulation (Compound Nos. 1-1293). It counts as cell-based. The conditions noted are these: Human TRPC6 stably-expressing cells, OAG 30 μM, FLIPR Calcium 5 Assay Kit; read-out: Inhibitory activity (pIC50 class) (converted). In short, it runs like this:
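TRPC6 (human) stable cells, 24 h culture; Ca5 no-wash dye + probenecid 30 min; cpd 20 min; OAG 30 μM final; ΔF (pre-cpd min to post-OAG max); 0%/100% = no cpd / no cpd + no OAG; 4PL → pIC50, binned +/++/+++.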

`Cc1nc(Oc2cc(C#N)ccc2-c2ccc([C@H](O)CN)cn2)cc(-c2ccccn2)n1` [compound 604, 4-[5-[(1S)-2-amino-1-hydroxyethyl]pyridin-2-yl]-3-(2-methyl-6-pyridin-2-ylpyrimidin-4-yl)oxybenzonitrile]: the IC50 is below 0.01 µM.

For the compound `Cc1cc(Oc2cc(C#N)ccc2-c2ccc([C@H](O)CN)cn2)cc(-c2ncc(C)s2)n1` [compound 605, 4-[5-[(1S)-2-amino-1-hydroxyethyl]pyridin-2-yl]-3-[2-methyl-6-(5-methyl-1,3-thiazol-2-yl)pyridin-4-yl]oxybenzonitrile], the IC50 is 0.01 to 1 µM.

As for `Cc1nc(Oc2cc(C#N)ccc2-c2ccc([C@H](O)CN)cn2)cc(-c2ncc(C)s2)n1` [compound 606, 4-[5-[(1S)-2-amino-1-hydroxyethyl]pyridin-2-yl]-3-[2-methyl-6-(5-methyl-1,3-thiazol-2-yl)pyrimidin-4-yl]oxybenzonitrile], the IC50 was 0.01 to 1 µM.

With `Cc1cc(Oc2cc(C#N)ccc2-c2cnc(CN)s2)cc(N2CCOCC2)n1` [compound 607, 4-[2-(aminomethyl)-1,3-thiazol-5-yl]-3-(2-methyl-6-morpholin-4-ylpyridin-4-yl)oxybenzonitrile], the IC50 was above 1 µM.

Turning to `Cn1nc(-c2ccccn2)cc1Oc1cc(C#N)ccc1-c1cnc(CN)s1` [compound 608, 4-[2-(aminomethyl)-1,3-thiazol-5-yl]-3-(2-methyl-5-pyridin-2-ylpyrazol-3-yl)oxybenzonitrile], the IC50 was above 1 µM.

For `Cn1nc(-c2ccccn2)cc1Oc1cc(C#N)ccc1-c1ccc(CN)cn1` [compound 609, 4-[5-(aminomethyl)pyridin-2-yl]-3-(2-methyl-5-pyridin-2-ylpyrazol-3-yl)oxybenzonitrile], the IC50 is below 0.01 µM.

For the compound `Cn1nc(C2CC2)cc1Oc1cc(C#N)ccc1-c1ccc(CC2(N)COC2)cn1` [compound 610, 4-[5-[(3-aminooxetan-3-yl)methyl]pyridin-2-yl]-3-(5-cyclopropyl-2-methylpyrazol-3-yl)oxybenzonitrile], the IC50 is below 0.01 µM.

In the case of `Cc1cc(Oc2cc(C#N)ccc2-c2ccc(C[C@H](N)C(=O)O)cn2)cc(N2CCOCC2)n1` [compound 611, (2S)-2-amino-3-[6-[4-cyano-2-(2-methyl-6-morpholin-4-ylpyridin-4-yl)oxyphenyl]pyridin-3-yl]propanoic acid], the IC50 was above 1 µM.

With `Cn1nc(C2CC2)cc1Oc1cc(C#N)ccc1-c1ccc(C[C@H](N)C(=O)O)cn1` [compound 612, (2S)-2-amino-3-[6-[4-cyano-2-(5-cyclopropyl-2-methylpyrazol-3-yl)oxyphenyl]pyridin-3-yl]propanoic acid], the IC50 is above 1 µM.

For `Cc1cc(Oc2cc(C#N)ccc2-c2ccc(C3(CN)COC3)cn2)cc(N2CCOCC2)n1` [compound 613, 4-[5-[3-(aminomethyl)oxetan-3-yl]pyridin-2-yl]-3-(2-methyl-6-morpholin-4-ylpyridin-4-yl)oxybenzonitrile], the IC50 is 0.01 to 1 µM.

On to `Cc1cc(Oc2cc(C#N)ccc2-c2ccc(C[C@@H](N)C(=O)O)cn2)cc(N2CCOCC2)n1` [compound 614, (2R)-2-amino-3-[6-[4-cyano-2-(2-methyl-6-morpholin-4-ylpyridin-4-yl)oxyphenyl]pyridin-3-yl]propanoic acid], for which the IC50 is above 1 µM.

With `Cc1nc(Oc2cc(C#N)ccc2-c2ccc(CC3(N)COC3)cn2)cc(N2CCCC2)n1` [compound 616, 4-[5-[(3-aminooxetan-3-yl)methyl]pyridin-2-yl]-3-(2-methyl-6-pyrrolidin-1-ylpyrimidin-4-yl)oxybenzonitrile], the IC50 was 0.01 to 1 µM.

For the compound `Cn1nc(-c2ccccn2)cc1Oc1cc(C#N)ccc1-c1cccn2c(CN)nnc12` [compound 617, 4-[3-(aminomethyl)-[1,2,4]triazolo[4,3-a]pyridin-8-yl]-3-(2-methyl-5-pyridin-2-ylpyrazol-3-yl)oxybenzonitrile], the IC50 is 0.01 to 1 µM.

`Cn1nc(C2CC2)cc1Oc1cc(C#N)ccc1-c1ccc(CN)c(C(=O)O)n1` [compound 618, 3-(aminomethyl)-6-[4-cyano-2-(5-cyclopropyl-2-methylpyrazol-3-yl)oxyphenyl]pyridine-2-carboxylic acid]: the IC50 is 0.01 to 1 µM.

As to `N#Cc1ccc(-c2ncc(CCN)cn2)c(Oc2cnnc(N3CCCCC3)c2)c1` [compound 619, 4-[5-(2-aminoethyl)pyrimidin-2-yl]-3-(6-piperidin-1-ylpyridazin-4-yl)oxybenzonitrile], the IC50 was below 0.01 µM.

On to `N#Cc1ccc(-c2ncc(CCN)cn2)c(Oc2cnnc(N3CCOCC3)c2)c1` [compound 620, 4-[5-(2-aminoethyl)pyrimidin-2-yl]-3-(6-morpholin-4-ylpyridazin-4-yl)oxybenzonitrile], for which the IC50 was 0.01 to 1 µM.

On to `Cn1nc(N2CCCCC2)cc1Oc1cc(C#N)ccc1-c1ccc(CN)cn1` [compound 621, 4-[5-(aminomethyl)pyridin-2-yl]-3-(2-methyl-5-piperidin-1-ylpyrazol-3-yl)oxybenzonitrile], for which the IC50 is below 0.01 µM.

For `Cn1nc(N2CCCC2)cc1Oc1cc(C#N)ccc1-c1ccc(CN)cn1` [compound 622, 4-[5-(aminomethyl)pyridin-2-yl]-3-(2-methyl-5-pyrrolidin-1-ylpyrazol-3-yl)oxybenzonitrile], the IC50 was below 0.01 µM.

With `CN(C)c1cc(Oc2cc(C#N)ccc2-c2ccc(CN)cn2)n(C)n1` [compound 623, 4-[5-(aminomethyl)pyridin-2-yl]-3-[5-(dimethylamino)-2-methylpyrazol-3-yl]oxybenzonitrile], the IC50 is below 0.01 µM.

Take `Cn1nc(N2CCCCC2)cc1Oc1cc(C#N)ccc1-c1ncc(CN)cn1` [compound 624, 4-[5-(aminomethyl)pyrimidin-2-yl]-3-(2-methyl-5-piperidin-1-ylpyrazol-3-yl)oxybenzonitrile]: the IC50 was below 0.01 µM.

Regarding `Cn1nc(N2CCCC2)cc1Oc1cc(C#N)ccc1-c1ncc(CN)cn1` [compound 625, 4-[5-(aminomethyl)pyrimidin-2-yl]-3-(2-methyl-5-pyrrolidin-1-ylpyrazol-3-yl)oxybenzonitrile], the IC50 is below 0.01 µM.

On to `CN(C)c1cc(Oc2cc(C#N)ccc2-c2ncc(CN)cn2)n(C)n1` [compound 626, 4-[5-(aminomethyl)pyrimidin-2-yl]-3-[5-(dimethylamino)-2-methylpyrazol-3-yl]oxybenzonitrile], for which the IC50 is below 0.01 µM.

As for `Cn1nc(N2CCCCC2)cc1Oc1cc(C#N)ccc1-c1ncc(CCN)cn1` [compound 627, 4-[5-(2-aminoethyl)pyrimidin-2-yl]-3-(2-methyl-5-piperidin-1-ylpyrazol-3-yl)oxybenzonitrile], the IC50 is below 0.01 µM.

In the case of `Cn1nc(N2CCCC2)cc1Oc1cc(C#N)ccc1-c1ncc(CCN)cn1` [compound 628, 4-[5-(2-aminoethyl)pyrimidin-2-yl]-3-(2-methyl-5-pyrrolidin-1-ylpyrazol-3-yl)oxybenzonitrile], the IC50 is below 0.01 µM.

In the case of `CN(C)c1cc(Oc2cc(C#N)ccc2-c2ncc(CCN)cn2)n(C)n1` [compound 629, 4-[5-(2-aminoethyl)pyrimidin-2-yl]-3-[5-(dimethylamino)-2-methylpyrazol-3-yl]oxybenzonitrile], the IC50 is below 0.01 µM.

As for `Cc1nc(NC(C)C)cc(Oc2cc(C#N)ccc2-c2ncc(CN)cn2)n1` [compound 630, 4-[5-(aminomethyl)pyrimidin-2-yl]-3-[2-methyl-6-(propan-2-ylamino)pyrimidin-4 yl]oxybenzonitrile], the IC50 is 0.01 to 1 µM.

For the compound `CCNc1cc(Oc2cc(C#N)ccc2-c2ncc(CN)cn2)nc(C)n1` [compound 631, 4-[5-(aminomethyl)pyrimidin-2-yl]-3-[6-(ethylamino)-2-methylpyrimidin-4-yl]oxybenzonitrile], the IC50 was 0.01 to 1 µM.

With `CCCNc1cc(Oc2cc(C#N)ccc2-c2ncc(CN)cn2)nc(C)n1` [compound 632, 4-[5-(aminomethyl)pyrimidin-2-yl]-3-[2-methyl-6-(propylamino)pyrimidin-4-yl]oxybenzonitrile], the IC50 is 0.01 to 1 µM.

With `Cc1nc(NC2CC2)cc(Oc2cc(C#N)ccc2-c2ncc(CN)cn2)n1` [compound 633, 4-[5-(aminomethyl)pyrimidin-2-yl]-3-[6-(cyclopropylamino)-2-methylpyrimidin-4-yl]oxybenzonitrile], the IC50 was 0.01 to 1 µM.

For `Cc1nc(NCC(C)C)cc(Oc2cc(C#N)ccc2-c2ncc(CN)cn2)n1` [compound 634, 4-[5-(aminomethyl)pyrimidin-2-yl]-3-[2-methyl-6-(2-methylpropylamino)pyrimidin-4-yl]oxybenzonitrile], the IC50 was below 0.01 µM.

Source of the values: patent publication US20230167073A1 (Teijin Pharma Limited, priority 2020, published 2023).
